Laboratory results reported in patent EP1431306A1, “A mechanism for hiv-1 entry into host cells and peptides inhibiting this mechanism” (priority 2002, dated 2004).

Key:
[1] = system: TAT+/gp120-LV; assay: Entry of TAT+/gp120-LV into C8166 cells after co-culture with U937/PINCO or U937/TAT cells; assay type: cell-based, HIV-1
From the text: This example is illustrated in Fig. 10. […] Said vector, as described in Example II, allows the expression of TAT, so that TAT is already present, as detailed described before, in the vector preparation and its amount is enhanced after the co-culture with U937/TAT cells. […] In particular, peptides with SEQ ID NO. 40 (RDKKKK), 42 (RDKKKV), 45 (KDKKEK), 47 (RDKKQK), 49 (RDKQQK), 50 (RDKVQK) revert the entry of more than 15%.
This example is illustrated in Fig. 11. […] 4 (CSFINT) and 44 (RDKVKK), where the entry experiment is performed with TAT+/gp120-LV, following 4 h co-culture of C8166 cells with U937/TAT cells. These two peptides are the ones derived from the Phage Display screening, and is here evaluated their ability of inhibit vector entry at concentrations lower than 100 µM (the concentration used in all the examples previously described). To verify if the integrity of the peptides is crucial for their activity, we have incubated the cells with said peptides in the presence of different protease inhibitors (aprotinin or a mix made by aprotinin, leupeptin, bestatin, pepstatin-A, AEBSF [4-(2-Aminoethyl) Benzenesulfonyl Fluoride Hydrochloride] and E-64 [(N-(N-(L-3-Transcarboxirane-2-Carbonyl)-L-Leucyl)-Agmatine)]). […] This example illustrates a way by which the power of said peptides can be improved.
Co-cultures and incubations with rTAT. […]
Transduction with HIV-1-derived lentivirus. Vector stocks were prepared by transient co-transfection of 293T cells with the following combinations of plasmids: pRRL.hPGK.GFP.SIN-18 + pCMV.DR8.2 + pMD.G (Naldini et al. (1996), supra) (VSV-G-LV) or pEnvHXB (Huang et al., J. Virol. 72 (1998), 8952-8960) (TAT+/gp120-LV); pRRL.hPGK.GFP.SIN-18 + pCMV.DR8.74 + pRSV-Rev ((Dull et al. (1998), supra) + pEnvHXB (TAT^-/gp120-LV). Vector concentration was determined by HIV-1 p24 Core profile ELISA following the manufacturer's instructions. The entry experiments were conducted on 10^5 cells per well of a 48-well plate in the presence of 8 µg/ml polybrene. The number of GFP-positive cells was analysed by FACS.

[2] = system: HIV-1 Ba-L; assay: Infection of PHA-stimulated PBMCs with wild type HIV-1 Ba-L (early viral transcripts by PCR); assay type: cell-based; details: 2 h at 37 °C, compared to 100 µM control peptide, SEQ ID NO.4 and 44: 100-50-10 µM, SEQ ID NO. 127: 1 µM-100-10 nM
Method: This example is illustrated in Fig. 12. […] 4 (CSFINT), 44 (RDKVKK) and the complete gp120 region SEQ ID NO.127 (CSFNITTEIRDKVKK), where the entry experiment is performed with two strains of HIV-1 on peripheral blood cells (PBMCs) derived from healthy donors. In particular, strain III B uses CXCR4 as a co-receptor (X4) and Ba-L uses CCR5 (R5).
In the graphs the percent inhibition of infection due to the peptides is shown, as compared to infection in the presence of 100 µM of a control peptide. PHA-stimulated PBMCs have been incubated with the peptides and immediately infected for 2 h at 37 °C. This incubation time is sufficient to evaluate virus entry, by detecting the presence of early viral transcripts into the cytoplasm of infected cells. The peptide concentrations are as follows: SEQ ID NO.4 and 44: 100-50-10 µM; SEQ ID NO. 127: 1 µM-100-10 nM. In Fig. 12A is represented the effect of the peptides on the basal infection of both viral strains, in Fig. 12B the effect of the peptides on the infection following incubation with rTAT 7 nM. A peptide-dependent inhibition of the basal infection by both HIV-1 strains is present already in the basal infection, reflecting the presence of TAT in the viral supernatants. […]
Infection with wild type HIV-1. […] Amplified DNA was analyzed by Southern blot hybridization with a ^32P-labeled probe, and quantified by densitometry. […]

Substance	blocking of virus entry (TAT+/gp120-LV) ([1]; concentration lower than 100 µM, no protease inhibitors, 4 h co-culture with U937/TAT cells)	concentration at which the inhibitory effect is still visible ([1]; in the presence of protease inhibitors (aprotinin or mix), 4 h co-culture with U937/TAT cells) [µM]	inhibition of the basal infection [2] [%]	reversion of TAT+/gp120-LV entry ([1]; 100 µM of the peptides, 4 h co-culture of C8166 cells with U937/PINCO or U937/TAT cells (effect potentiated by co-culture with U937/TAT))
CSFINT [SEQ ID NO. 4]	inefficient in blocking virus entry	5	~70	–
RDKKQQ [SEQ ID NO. 47]	–	–	–	more than 15%
